For this experiment, the target named is HCV NS5B polymerase (Hepatitis C virus genotype 1b, UniProt Q9WMX2). As to the kind of experiment: HCV NS5B polymerase inhibition assay (FlashPlate, [α-33P]GTP incorporation). It counts as biochemical. As to the method: Compounds were tested for HCV NS5B polymerase inhibition. Assays were performed in a 96-well streptavidin-coated FlashPlate using 20 nM enzyme, 1.4 μCi of [(α-^33P]GTP, 0.63 μM GTP, and 250 nM 5′biotinylated oligo (rG13)/poly rC in 20 mM Tris-HCl, pH 7.5, 5 mM MgCl2, 5 mM dithiothreitol, 0.1 g/L bovine serum albumin, and 100 U/ml RNAse inhibitor. The reaction was stopped by aspiration after 75 min at 28° C. and the plate was washed several times. After washing and drying the plate, incorporated radioactivity was counted using a Microbeta scintillation counter. IC50 values were calculated relative to the uninhibited control and inhibition data were fitted to a 4-parameter IC50 equation. For very potent inhibitors, the data were fitted to a tight binding quadratic equation to obtain IC50 values.
HCV NS5B polymerase, sequence (Q9WMX2 2420-3010): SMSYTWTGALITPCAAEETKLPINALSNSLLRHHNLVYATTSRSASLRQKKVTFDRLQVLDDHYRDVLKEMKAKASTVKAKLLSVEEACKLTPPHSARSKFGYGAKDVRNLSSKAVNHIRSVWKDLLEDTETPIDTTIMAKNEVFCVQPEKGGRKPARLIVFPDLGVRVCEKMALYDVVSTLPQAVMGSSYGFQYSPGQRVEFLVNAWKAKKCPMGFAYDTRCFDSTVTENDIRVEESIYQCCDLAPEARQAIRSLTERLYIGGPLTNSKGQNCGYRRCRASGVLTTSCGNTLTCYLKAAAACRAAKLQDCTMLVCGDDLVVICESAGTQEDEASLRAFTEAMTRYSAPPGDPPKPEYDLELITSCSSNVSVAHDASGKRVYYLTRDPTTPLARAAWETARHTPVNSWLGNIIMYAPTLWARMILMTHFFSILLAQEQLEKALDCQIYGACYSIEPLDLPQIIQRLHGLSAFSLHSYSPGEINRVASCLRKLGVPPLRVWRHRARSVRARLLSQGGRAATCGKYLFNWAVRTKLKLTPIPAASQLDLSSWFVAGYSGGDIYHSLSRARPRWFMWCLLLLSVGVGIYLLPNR

The mark [1] stands for this setting: 20 nM enzyme, 75 min at 28° C., read-out: NS5B IC50.
Where [2] appears, read: read-out: NS5B polymerase inhibition IC50.

Read-outs that look alike come from different tables or passages of the source.

Consider `CC(C)(C)CC[C@@]1(C)C(=O)C(C2=Nc3ccc(NS(C)(=O)=O)cc3S(C)(=O)=N2)=C(O)c2ccccc21` (mixture of isomers) [Compound 36, N-{3-[4-(3,3-dimethyl-butyl)-1-hydroxy-4-methyl-3-oxo-3,4-dihydro-naphthalen-2-yl]-1-methyl-1-oxo-1λ^6-benzo[1,2,4]thiadiazin-7-yl}-methanesulfonamide], for which the IC50 reads like this: under setting [1], less than 1000 nM; under setting [2], less than 1000 nM.
In the case of `CC(C)(C)[C@H]1C(O)=C(C2=Nc3ccc(NS(C)(=O)=O)cc3S(C)(=O)=N2)C(=O)N1Cc1ccc(F)c(Cl)c1` (stereo in doubt) [Compound 32, N-{3-[5-tert-butyl-1-(3-chloro-4-fluoro-benzyl)-4-hydroxy-2-oxo-2,5-dihydro-1H-pyrrol-3-yl]-1-methyl-1-oxo-1λ^6-benzo[1,2,4]thiadiazin-7-yl}-methanesulfonamide], the IC50 is, setting by setting: under setting [1], less than 1000 nM; under setting [2], less than 1000 nM.
In the case of `CC(C)(C)CCn1nc(N2CCCC2)c(O)c(C2=Nc3ccc(NS(C)(=O)=O)cc3S(C)(=O)=N2)c1=O` (stereo not drawn) [Compound 28, N-{3-[2-(3,3-dimethyl-butyl)-5-hydroxy-3-oxo-6-pyrrolidin-1-yl-2,3-dihydro-pyridazin-4-yl]-1-methyl-1-oxo-1λ^6-benzo[1,2,4]thiadiazin-7-yl}-methanesulfonamide], the IC50 is, setting by setting: under setting [1], less than 1000 nM; under setting [2], less than 1000 nM.
For the compound `CS(=O)(=O)Nc1ccc2c(c1)S(C)(=O)=NC(C1=C(O)[C@@H]3[C@H]4CC[C@H](C4)[C@@H]3N(Cc3ccc(F)cc3)C1=O)=N2` (stereo partly drawn) [Compound 54, N-{3-[3-(4-fluoro-benzyl)-6-hydroxy-4-oxo-3-aza-tricyclo[6.2.1.0^2,7]undec-5-en-5-yl]-1-methyl-1-oxo-1λ^6-benzo[1,2,4]thiadiazin-7-yl}-methanesulfonamide], the IC50 runs as follows: under setting [1], less than 1000 nM; under setting [2], less than 1000 nM.
As to `CC[C@H]1CC(O)=C(C2=Nc3ccc(NS(C)(=O)=O)cc3S(C)(=O)=N2)C(=O)N1Cc1ccc(F)cc1` (mixture of isomers) [Compound 75, N-{3-[6-(S)-Ethyl-1-(4-fluoro-benzyl)-4-hydroxy-2-oxo-1,2,5,6-tetrahydro-pyridin-3-yl]-1-methyl-1-oxo-1λ^6-benzo[1,2,4]thiadiazin-7-yl}-methanesulfonamide], the IC50 is less than 1000 nM under setting [1] and less than 1000 nM under setting [2].
In the case of `CC(C)(C)CCn1nc(-c2cccs2)c(O)c(C2=Nc3ccc(NS(C)(=O)=O)cc3[S@@](C)(=O)=N2)c1=O` [Compound 23], the half-maximal inhibitory concentration (IC50) was less than 1000 nM under setting [1] and less than 1000 nM under setting [2].
In the case of `CC(C)(C)CC[C@@]1(C)C(=O)C(C2=Nc3ccc(NS(C)(=O)=O)cc3[S@@](C)(=O)=N2)=C(O)c2ccccc21` [Compound 37], the IC50 by setting is: under setting [1], less than 1000 nM; under setting [2], less than 1000 nM.
As for `CC(C)(C)CC[C@@]1(C)C(=O)C(C2=Nc3ccc(NS(C)(=O)=O)cc3[S@](C)(=O)=N2)=C(O)c2ccccc21` [Compound 38], the IC50 is less than 1000 nM under setting [1] and less than 1000 nM under setting [2].
`CC(C)(C)CCn1nc(-c2cccs2)c(O)c(C2=Nc3ccc(NS(C)(=O)=O)cc3S(C)(=O)=N2)c1=O` (racemic) [Compound 22, N-{3-[2-(3,3-dimethyl-butyl)-5-hydroxy-3-oxo-6-thiophen-2-yl-2,3-dihydro-pyridazin-4-yl]-1-methyl-1-oxo-1l6-benzo[1,2,4]thiadiazin-7-yl}-methanesulfonamide]: the IC50 is less than 1000 nM under setting [1] and less than 1000 nM under setting [2].
With `CS1(=O)=NC(C2=C(O)[C@@H]3CCC[C@@H]3N(Cc3ccc(F)cc3)C2=O)=Nc2ccccc21` (stereo in doubt) [Compound 68, 1-(4-fluoro-benzyl)-4-hydroxy-3-(1-methyl-1-oxo-1λ^6-benzo[1,2,4]thiadiazin-3-yl)-1,4a,5,6,7,7a-hexahydro-[1]pyrindin-2-one], the IC50 runs as follows: under setting [1], 1000 to 100000 nM; under setting [2], less than 100000 nM.
Take `CS(=O)(=O)Nc1ccc2c(c1)S(C)(=O)=NC(C1=C(O)[C@H]3[C@H]([C@@H]4CC[C@H]3O4)N(Cc3ccc(F)cc3)C1=O)=N2` (mixture of isomers) [Compound 63, N-{3-[3-(4-fluoro-benzyl)-6-hydroxy-4-oxo-11-oxa-3-aza-tricyclo[6.2.1.0^2,7]undec-5-en-5-yl]-1-methyl-1-oxo-1λ^6-benzo[1,2,4]thiadiazin-7-yl}-methanesulfonamide]: the IC50 is less than 1000 nM under setting [1] and less than 1000 nM under setting [2].
Regarding `CC(C)(C)CCn1nc(-c2cccs2)c(O)c(C2=Nc3ccc(NS(C)(=O)=O)cc3[S@](C)(=O)=N2)c1=O` [Compound 24], the IC50 by setting is: under setting [1], 1000 to 100000 nM; under setting [2], less than 100000 nM.
